We go through 27 compounds from patent US8058285B2, “Substituted pyrido [3′, 2′: 4, 5] thieno [3, 2-D] pyrimidines and pyrido [3′, 2′: 4, 5] furo [3, 2-D] pyrimidines used as inhibitors of the PDE-4 and/or the release of TNF-ALPHA” (The Medicines Company (Leipzig) GmbH, priority 2004, dated 2011).

Structures can show the parent of a compound that is named as a salt.

The target of this experiment is T1, PDE-4A (Homo sapiens, UniProt P27815).
T1 construct: PDE-4A catalytic domain comprising amino acids 342-704; made in house; host or cells: Escherichia coli
T1 sequence (P27815 342-704): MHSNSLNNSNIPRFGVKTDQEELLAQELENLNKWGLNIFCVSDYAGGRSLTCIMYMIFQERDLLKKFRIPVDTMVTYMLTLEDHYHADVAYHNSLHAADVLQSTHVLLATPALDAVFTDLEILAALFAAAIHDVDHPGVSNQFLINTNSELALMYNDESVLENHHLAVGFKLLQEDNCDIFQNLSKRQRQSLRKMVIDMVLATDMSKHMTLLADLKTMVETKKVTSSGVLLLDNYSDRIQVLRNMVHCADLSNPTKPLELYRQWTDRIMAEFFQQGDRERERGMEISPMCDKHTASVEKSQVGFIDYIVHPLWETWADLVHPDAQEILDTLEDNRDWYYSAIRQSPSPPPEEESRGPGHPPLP
The experiment can be described thus: PDE-4A inhibitory assay (SPA). The format is biochemical. The text has this:
Human recombinant PDE-4A catalytic domain comprising amino acids 342-704 was cloned into Escherichia coli and expressed, as described by W. Richter et al., Protein Expression and Purification (2000) 19: 375-383. The other posphodiesterases were either obtained from cell lines of human origin (TPH1 monocytes line for PDE-1, MCF7 for PDE-5) or expressed recombinantly in sf9 insect cells (for PDE-3A, PDE-3B, PDE-7A and PDE-4D) in accordance with an adapted method by Luckow, V. A. et al., in: Recombinant DNA Technology & Applications., (1991) eds. Prokop, Bajpai, R. K. & Ho, C. S., pp 97-152.
The phosphodiesterase activity was determined by the SPA assay as described by the manufacturer Amersham Biosciences and by Horton J. K and Baxendale P. M., Methods Mol. Biol. (1995) 41: 91-105.
The reaction mixtures contained 100 mM Tris-HCl (pH 7.5), 5 mM MgCl2, 3.8 mM 2-mercaptoethanol, and 1 μM cAMP or cGMP as a substrate, the inhibitors at different concentrations and also further components required for the detection of the individual isoenzymes (see below). The reaction was started by adding the enzyme. The operating volume is 100 μl in the wells of a white 96-Well microtiter plate. The test substances were produced as stock solutions in DMSO. The DMSO concentration in the reaction batch was 1% v/v. The PDE activity is not impaired with this DMSO concentration. Having started the reaction by the addition of enzyme, the samples were incubated at 22° C. for 20 min. The reaction was stopped by the addition of SPA bead suspension which contains the zinc sulfate concentration provided according to the manufacturer. Then, the beads are allowed to sediment for 30 min and the plates are analyzed on the luminescence microtiter plate reader Fluostar Optima (BMG Labtechologies).
[^3H]-cAMP was used as a substrate for determining the activity of PDE-2, -3, -4 and -7 and [^3H]-cGMP for determining the activity of PDE-5. The non-specific enzyme activities were determined in the presence of 100 μM rolipram (for PDE-4) and in the presence of 100 μM IBMX (for PDE-3 and -5) and subtracted from the test values. The incubation samples of the PDE-3 assay contain 10 μM rolipram to inhibit possible contaminations by PDE-4. The PDE-2 activity is tested using a SPA assay by Amersham Biosciences in the presence of the PDE-2 activator 5 μM cGMP. […] The selectivity as to PDEs 2, 3 and 5 has a factor of 100 to 10 000.
In turn, `CCOc1nc(N2CCNCC2)nc2c1sc1nc(-c3ccc(OC(C)C)cc3)nc(C)c12` [4-Ethoxy-9-methyl-2-piperazin-1-yl-7-(4-iso-propoxy-phenyl)-thieno[2,3-d:4,5-d′]dipyrimidine] displayed an IC50 of 2 to 50 nM.

For the compound `CCOc1nc(N2CCNCC2)nc2c1sc1nc(-c3cccc4ccccc34)nc(C)c12` [4-Ethoxy-9-methyl-7-(1-naphthyl)-2-piperazin-1-yl-thieno[2,3-d:4,5-d′]dipyrimidine], the IC50 lay in the range of 2 to 50 nM. The same measure for `CCOc1nc(N2CCNCC2)nc2c1sc1nc(-c3ccc4c(c3)OCO4)cc(C)c12` [4-Ethoxy-9-methyl-7-(3,4-methylenedioxyphenyl)-2-piperazin-1-yl-pyrido[3′,2′:4,5]thieno-[3,2-d]pyrimidine]: 2 to 50 nM. In turn, `CCOc1nc(N2CCNCC2)nc2c1sc1nc(-c3ccc(C)cc3)cc(C)c12` [4-Ethoxy-9-methyl-7-(4-methyl-phenyl)-2-(piperazin-1-yl)-pyrido[3′,2′:4,5]thieno[3,2-d]pyrimidine] displayed an IC50 of 2 to 50 nM. With `CCOc1nc(N2CCNCC2)nc2c1sc1nc(-c3ccc(SC)cc3)cc(C)c12` [4-Ethoxy-9-methyl-7-(4-methylthio-phenyl)-2-piperazin-1-yl-pyrido[3′,2′:4,5]thieno[3,2-d]pyrimidine] the figure was 2 to 50 nM; with `CCOc1nc(N2CCNCC2)nc2c1sc1nc(-c3ccc(Oc4ccccc4)cc3)nc(C)c12` [4-Ethoxy-9-methyl-7-(4-phenoxy-phenyl)-2-piperazin-1-yl-thieno[2,3-d:4,5-d′]dipyrimidine], below 2 nM; with `CCOc1nc(N2CCNCC2)nc2c1sc1nc(N3CCOCC3)cc(C)c12` [4-Ethoxy-9-methyl-7-morpholino-2-(piperazin-1-yl)-pyrido[3′,2′:4,5]thieno[3,2-d]pyrimidine], 2 to 50 nM. With `CCOc1nc(N2CCNCC2)nc2c1sc1nc(-c3ccccc3)nc(C)c12` [4-Ethoxy-9-methyl-7-phenyl-2-piperazin-1-yl-thieno[2,3-d:4,5-d′]dipyrimidine] the figure was 2 to 50 nM; with `CCOc1nc(N2CCNCC2)nc2c1sc1nc(-c3cccs3)cc(C)c12` [4-Ethoxy-9-methyl-7-thien-2-yl-2-(piperazin-1-yl)-pyrido[3′,2′:4,5]thieno[3,2-d]pyrimidine], 2 to 50 nM. The same measure for `CCOc1nc(N2CCNCC2)nc2c1sc1nc(N3CCSCC3)cc(C)c12` [4-Ethoxy-9-methyl-7-thiomorpholino-2-(piperazin-1-yl)-pyrido[3′,2′:4,5]thieno[3,2-d]pyrimidine-hydrochloride]: 2 to 50 nM; for `CCOc1nc(N2CCNCC2)nc2c1sc1nc(-c3ccccc3)c(Cc3ccc([N+](=O)[O-])cc3)c(C)c12` [4-Ethoxy-9-methyl-8-(4-nitro-benzyl)-7-phenyl-2-(piperazin-1-yl)-pyrido[3′,2′:4,5]thieno[3,2-d]pyrimidine]: 2 to 50 nM. Take `CCOc1nc(N2CCNCC2)nc2c1sc1nc(-c3ccc(-n4cccc4)cc3)cc(C(F)(F)F)c12` [4-Ethoxy-9-trifluoromethyl-2-piperazin-1-yl-7-(4-(1H-pyrrol-1-yl)-phenyl)-pyrido[3′,2′:4,5]thieno[3,2-d]pyrimidine]: the IC50 is below 2 nM. With `CCOC(=O)c1ccc(-c2cc(C(F)(F)F)c3c(n2)sc2c(OCC)nc(N4CCNCC4)nc23)cc1` [4-[4-Ethoxy-2-(piperazin-1-yl)-9-trifluoromethyl-pyrido[3′,2′:4,5]thieno[3,2-d]pyrimidin-7-yl]-benzoic acid ethyl ester], the IC50 is below 2 nM. The same measure for `CCOc1nc(N2CCNCC2)nc2c1sc1nc3c(c(C(F)(F)F)c12)CCc1cc(OC)ccc1-3` [5,6-Dihydro-11-ethoxy-3′-methoxy-9-piperazin-1-yl-7-trifluoromethyl-benzo[h]pyrimido[4′,5′:4,5]thieno[2,3-b]quinoline]: below 2 nM; for `CCOc1nc(N2CCNCC2)nc2c1sc1nc(-c3ccc4c(c3)OCCO4)cc(C(F)(F)F)c12` [7-(2,3-Dihydrobenzo[b][1,4]dioxin-6-yl)-4-ethoxy-2-(piperazin-1-yl)-9-trifluoromethyl-pyrido[3′,2′:4,5]thieno[3,2-d]pyrimidine]: below 2 nM; for `CCCc1nc(N2CCNCC2)c2sc3nc(-c4ccc(OC)c(OC)c4)cc(C)c3c2n1` [7-(3,4-Dimethoxy-phenyl)-9-methyl-4-(piperazin-1-yl)-2-n-propyl-pyrido[3′,2′:4,5]thieno[3,2-d]pyrimidine]: 2 to 50 nM. Take `CCOc1nc(N2CCNCC2)nc2c1sc1nc(-c3cccc(N)c3)cc(C(F)(F)F)c12` [7-(3-Amino-phenyl)-4-Ethoxy-2-piperazin-1-yl-9-trifluoromethyl-pyrido[3′,2′:4,5]thieno[3,2-d]pyrimidine]: the IC50 lay in the range of 2 to 50 nM.

With `CCOc1nc(N2CCNCC2)nc2c1sc1nc(-c3cccc(C#N)c3)cc(C(F)(F)F)c12` [7-(3-Cyano-phenyl)-4-ethoxy-2-piperazin-1-yl-9-trifluoromethyl-pyrido[3′,2′:4,5]thieno[3,2-d]pyrimidine], the IC50 is below 2 nM. Turning to `CCOc1nc(N2CCNCC2)nc2c1sc1nc(-c3ccc(-c4ccc(OC)c(OC)c4)cc3)nc(C)c12` [7-(3′,4′-Dimethoxybiphen-4-yl)-4-ethoxy-9-methyl-2-piperazin-1-yl-thieno[2,3-d:4,5-d′]dipyrimidine], the IC50 was below 2 nM. The same measure for `CCOc1nc(N2CCNCC2)nc2c1sc1nc(-c3ccc(N)cc3)cc(C(F)(F)F)c12` [7-(4-Amino-phenyl)-4-ethoxy-2-piperazin-1-yl-9-trifluoromethyl-pyrido[3′,2′:4,5]thieno[3,2-d]pyrimidine]: 2 to 50 nM; for `CCOc1nc(N2CCNCC2)nc2c1sc1nc(-c3ccc(-c4ccccc4)cc3)nc(C)c12` [7-(4-Biphenyl)-4-ethoxy-9-methyl-2-piperazin-1-yl-thieno[2,3-d:4,5-d′]dipyrimidine]: 2 to 50 nM; for `CCOc1nc(N2CCNCC2)nc2c1sc1nc(-c3ccc(Br)cc3)cc(CC)c12` [7-(4-Bromo-phenyl)-4-ethoxy-9-ethyl-2-(piperazin-1-yl)-pyrido[3′,2′:4,5]thieno[3,2-d]pyrimidine]: below 2 nM. With `CCOc1nc(N2CCNCC2)nc2c1sc1nc(-c3ccc(Br)cc3)cc(C)c12` [7-(4-Bromo-phenyl)-4-ethoxy-9-methyl-2-(piperazin-1-yl)-pyrido[3′,2′:4,5]thieno[3,2-d]pyrimidine] the figure was 2 to 50 nM; with `CCOc1nc(N2CCNCC2)nc2c1sc1nc(-c3ccc(Br)cc3)nc(C)c12` [7-(4-Bromo-phenyl)-4-ethoxy-9-methyl-2-piperazin-1-yl-thieno[2,3-d:4,5-d′]dipyrimidine], 2 to 50 nM. With `CCOc1nc(N2CCNCC2)nc2c1sc1nc(-c3ccc(Cl)cc3)cc(CC)c12` [7-(4-Chloro-phenyl)-9-ethyl-4-ethoxy-2-(piperazin-1-yl)-pyrido[3′,2′:4,5]thieno[3,2-d]pyrimidine] the figure was 2 to 50 nM. Turning to `CCOc1nc(N2CCNCC2)nc2c1sc1nc(-c3ccc(C#N)cc3)cc(C(F)(F)F)c12` [7-(4-Cyano-phenyl)-4-ethoxy-2-piperazin-1-yl-9-trifluoromethyl-pyrido[3′,2′:4,5]thieno[3,2-d]pyrimidine], the IC50 fell in the range of 2 to 50 nM.

As for `CCCOc1nc(N2CCNCC2)nc2c1sc1nc(-c3ccc(OCC)cc3)cc(CC)c12` [7-(4-Ethoxy-phenyl)-9-ethyl-2-(piperazin-1-yl)-4-n-propoxy-pyrido[3′,2′:4,5]thieno[3,2-d]pyrimidine], the IC50 was below 2 nM.
